We go through ten molecules from US7781187B2, “Fluorescent dyes” (Corning Incorporated, priority 2005, dated 2010).

Read-outs that look alike come from different tables or passages of the source.

The nature of series [1]: Fluorescence excitation and emission spectra of the dyes in buffer (Fluorolog-3 spectrometer). Type of series: physicochemical. Also noted: key to Excitation max. / Emission max.: peak wavelengths in nm. The source says: The fluorescence of the exemplary fluorescent dyes in buffer was examined on a Fluorolog®-3 (a trademark of Spex Industries Inc.) spectrometer. The fluorescent dyes of the present invention have large Stokes shifts; the excitation and emission maxima are close to or greater than 100 nm apart. Peak wavelengths are tabulated in Table 2 along with two commercially available fluorescent dyes, TOTO-1TM and YO-[…]TM (trademarks of Molecular Probes, Inc.). The Stokes shifts of TOTO-1TM and YO-[…]TM are small in comparison to the dyes of the present invention.

Series [2] deals with dsDNA (20 mer). Nature of the series: Emission intensity of dye with equimolar dsDNA relative to free dye (fluorescence spectrometer). To be noted: for direction of change in emission intensity upon addition of DNA / effect of ssDNA and dsDNA on dye emission: FIG. 2; for Free dye rel. to dsDNA: equimolar dsDNA (20 mer), emission intensity ratio. An excerpt:
(§1) FIG. 2 illustrates the effect of ssDNA and dsDNA on dye emission. […] All the dyes reported here show a larger change in emission intensity upon the addition of dsDNA than they do upon the addition of ssDNA; in some cases (GA, 95) this change is positive, in others it is negative (HE, HE-HE, FI).
Emission intensities of the fluorescent dyes of the present invention and TOTO-1™ at 1×10^−5 M in 1×PCR buffer were compared in the absence of DNA (free dye emission) and in the presence of equimolar dsDNA or ssDNA (20 mer) on the fluorescence spectrometer. […]

Series [3] has as its system ssDNA (20 mer). Nature of the series: Emission intensity of dye with equimolar ssDNA relative to free dye (fluorescence spectrometer). To be noted: dye 1×10^−5 M in 1×PCR buffer; for change of the emission intensity in the presence of ssDNA: equimolar ssDNA; for Free dye rel. to ssDNA: equimolar ssDNA (20 mer), emission intensity ratio.
Source text: as §1
Emission intensities of the fluorescent dyes of the present invention and TOTO-1™ at 1×10^−5 M in 1×PCR buffer were compared in the absence of DNA (free dye emission) and in the presence of equimolar dsDNA or ssDNA (20 mer) on the fluorescence spectrometer.
The fluorescent dyes of the present invention have a large Stokes shift allowing the use of less sophisticated equipment for the detection of the emission intensity.

Series [4] concerns double-stranded DNA (dsDNA). Particulars: on a microplate reader; cited from earlier work.
The test system of series [5] is dsDNA. Nature of the series: ssDNA/dsDNA selectivity in the plate reader assay (FIG. 3). An excerpt: FIG. 3 illustrates the ssDNA/dsDNA selectivity of the fluorescent dyes of the present invention, HE-HE and 95, versus the commercially available fluorescent dye TOTO-1™ in the plate reader assay. […] By learning more about the binding modes of the disclosed dyes, it should be possible to design and synthesize members of the family optimized for dsDNA detection.

The conditions of series [6]: commercial dye data from Molecular Probes catalog; cited from earlier work.
The subject of series [7] is dsDNA. Nature of the series: Titration of dyes with dsDNA in 96-well microplate (sensitivity and dynamic range, SpectraMax Gemini plate reader). How it is done:
The fluorescent dyes shown in Table 5 were titrated with dsDNA in order to determine the sensitivity (lowest detection limit) and dynamic range. A 96-well polystyrene Corning Costar® (a trademark of Corning Incorporated) microwell plate was loaded with 100 μL/well of dye mixed with various levels of dsDNA and incubated at room temperature for 2 hours allowing the mixture to equillibrate. The dye fluorescence was then measured on a SpectraMax® (a trademark of Molecular Devices Corp.) Gemini Plate-reader. Relative fluorescence units (RFU) were then plotted against DNA concentration in pg/μL.

Series [8] can be described thus: Stokes shift of MH dyes (FIG. 4). Type of series: physicochemical. An excerpt:
Unlike Fluorescein and other commercially available dyes whose peak excitation and emission wavelengths are extremely close the MH dyes have ˜200 nm between peaks.

Setting [9] is: dye 1×10^−5 M in 1×PCR buffer, equimolar dsDNA.

Consider `CN(CCO)c1ccc(/C=C/c2sc3ccccc3[n+]2C)cc1` [GA], for which, in series [1], the Emission max. is 587, the Excitation max. is listed as 512 and the Stokes shift was 75 nm. Also, the “direction of change in emission intensity upon addition of DNA” value (“direction of change” below) in series [2] is reported as “positive”.

Turning to `C[n+]1c(/C=C/c2ccc(SCCO)cc2)sc2ccccc21` [FI], in series [1], the Emission max. amounted to 546, the Excitation max. is 382 and the Stokes shift is 164 nm. In series [3], the “change of the emission intensity in the presence of ssDNA” value is reported as “very little change” and the “Free dye rel. to ssDNA” value is 0.98. In series [2], the “direction of change” value is reported as “negative”; the “effect of ssDNA and dsDNA on dye emission” value is “most pronounced”. Further, in series [2] (setting [9]), the “change of the emission intensity in the presence of dsDNA” value is given as 28.7 times. The “Free dye rel. to dsDNA” value in series [2] (dye 1×10^−5 M in 1×PCR buffer) stood at 28.7.

For the molecule `CN(C)CCCN(CCCN(C)C)c1cc(C=C2Sc3ccccc3N2C)c2ccccc2[n+]1-c1ccccc1` [PicoGreen™], in series [4], the dynamic range is ~3 orders of magnitude and the “sensitivity for double-stranded DNA (dsDNA)” value is given as 250 pg/mL.

`CN1/C(=C/c2cc[n+](CCC[N+](C)(C)CCC[N+](C)(C)CCC[n+]3ccc(/C=C4\Sc5ccccc5N4C)c4ccccc43)c3ccccc23)Sc2ccccc21.[I-].[I-].[I-].[I-]` [TOTO-1™, reference compound]: in series [5], the ssDNA/dsDNA selectivity result is “superior selectivity”. Moreover, in series [3], the “change of the emission intensity in the presence of ssDNA” value was “very little change” and the “Free dye rel. to ssDNA” value is listed as 0.95. Moreover, in series [6], the Emission max. is 533, the Excitation max. is reported as 514 and the Stokes shift is on record as 19 nm. In addition, the “change of the emission intensity upon interaction with dsDNA” value in series [2] (setting [9]) is ~3 orders of magnitude. Besides, the “Free dye rel. to dsDNA” value in series [2] (dye 1×10^−5 M in 1×PCR buffer) was found to be 0.003.

Take `COc1ccc(/C=C/c2sc3ccccc3[n+]2C)cc1` [HE]: in series [1], the Emission max. was 500, the Excitation max. was determined as 385 and the Stokes shift is 115 nm. Moreover, the “direction of change” value in series [2] was “negative”.

For `C[n+]1c(/C=C/c2ccc(N(CCO)CCO)cc2)sc2ccccc21` [Dye 95], in series [1], the Emission max. is on record as 585, the Excitation max. is 500 and the Stokes shift is given as 85 nm. In series [5], the ssDNA/dsDNA selectivity result is on record as “significant preference for dsDNA”. Besides, the “direction of change” value in series [2] is reported as “positive”. Moreover, in series [7], the “dynamic range compared with TOTO-1™” value was “larger dynamic range” and the “sensitivity compared with TOTO-1™” value was “comparable”.

For the molecule `CN1C(=CC=Cc2cc[n+](CCC[N+](C)(C)C)c3ccccc23)Oc2ccccc21.[I-].[I-]` [YO-PRO-3 ™], in series [6], the Emission max. was 631, the Excitation max. is 612 and the Stokes shift is 19 nm.

With `CN(C)c1ccc(/C=C/c2ccc(C(=O)[O-])s2)cc1.[Li+]` [MH1], the “Stokes shift (between peak excitation and emission wavelengths)” value in series [8] is recorded as about 200 nm.

As to `O=C([O-])c1ccc(-c2ccc(/C=C/c3ccc(N(CCO)CCO)cc3)s2)s1.[Na+]` [MH3], the “Stokes shift (between peak excitation and emission wavelengths)” value in series [8] is recorded as about 200 nm.

In the case of `C[n+]1c(/C=C/c2ccc(OCCOCCOCCOc3ccc(/C=C/c4sc5ccccc5[n+]4C)cc3)cc2)sc2ccccc21` [HE-HE], in series [1], the Emission max. stood at 616, the Excitation max. is recorded as 400 and the Stokes shift is reported as 216 nm. Besides, the ssDNA/dsDNA selectivity result in series [5] is “only slightly more sensitive towards dsDNA than ssDNA”. The “Free dye rel. to ssDNA” value in series [3] is on record as 1.19. Moreover, in series [2], the “direction of change” value was “negative”; the “effect of ssDNA and dsDNA on dye emission” value is on record as “most pronounced”. Moreover, the “change of the emission intensity in the presence of dsDNA” value in series [2] (setting [9]) came out at 13.5 times. Besides, the “Free dye rel. to dsDNA” value in series [2] (dye 1×10^−5 M in 1×PCR buffer) is recorded as 13.5. Also, in series [7], the “dynamic range compared with TOTO-1™” value is recorded as “greater dynamic range” and the “sensitivity compared with TOTO-1™” value was “more sensitive”.
